Several values for one entry are separate records, joined by “and”; a condition that tells them apart may be missing. Equal entries are not always repeated. Blank lines part the entries; values can stand above or below the compound they belong to.
What was measured:
[1] = system: Petunia FMT (E20); assay: Methyltransferase assay (14C-SAM, TLC) of crude homogenate of E. coli containing pCGP3086; assay type: biochemical, Petunia hybrida; parameters: key to Petunidin (product on TLC) / Malvidin (product on TLC): yes = detection of product on TLC; no = no reaction observed as determined by absence of product
Procedure: 10 mLs of LB containing ampicillin at 100 μg/mL and kanamycin at 25 μg/mL. (LB/Amp100+Kan25) were inoculated with a single colony of pCGP3086 or pQE30 in M15 (pREP4) cells. […] IPTG was then added to a final concentration of 1 mM and the culture was further incubated at 30° C. with shaking for 8 hours. The cells were pelleted by centrifugation at 3500 rpm for 10 minutes at 4° C. The pellet was resuspended in 1 mL of 0.1 M NaPi, pH 7.5, 4 mM MgCl2. […] The mixture was then sonicated for two bursts of 10 seconds at output 2-3 and then incubated on ice for 30 minutes. The cell debris was pelleted by centrifugation at 14,000 rpm for 20 minutes at 4° C. The supernatant was passed through a NAP-10 column (Pharmacia) and 1.5 mL of the sample collected in 0.1 M NaPi, pH 7.5, 4 mM MgCl2. […] (1983), supra. Methyltransferase assays were set up according to Table 10 in a total reaction volume of 50 μL. […] The assay reactions were incubated at 30° C. for 30 minutes. Fifty microlitres of a chloroform mix (CHCl3:methanol/1% HCl, 2:1) was added and the mixture was then vortexed to stop the reactions. […] The tube was then placed in a boiling waterbath for 30 minutes and the contents subsequently desiccated under vacuum.

[2] = system: Torenia FMT (TFMT); assay: HPLC assay of methyltransferase activity, E. coli extract containing pCGP3090; assay type: biochemical, Torenia hybrida; details: for product of flavonoid methyltransferase activity with the substrate: Torenia FMT in pCGP3090, to a lesser degree petunidin; for % of anthocyanidin detected cya / % of anthocyanidin detected del / % of anthocyanidin detected mal / % of anthocyanidin detected peo / % of anthocyanidin detected pet: pCGP3090 (TFMT), percentage of total anthocyanidins
Procedure: (§1) The assay reactions were incubated at 30° C. for 30 minutes. Fifty microlitres of a chloroform mix (CHCl3:methanol/1% HCl, 2:1) was added and the mixture was then vortexed to stop the reactions. The phases were separated by centrifugation at 13,000 rpm for 5 minutes and 50 μL of the upper phase was transferred into a clean tube and the contents subsequently hydrolysed by the addition of 12.5 μL of 10M HCl. The tube was then placed in a boiling waterbath for 30 minutes and the contents subsequently desiccated under vacuum. The residue was resuspended in 2-3 μL of methanol/1% HCl and spotted onto a TLC plate alongside standard samples of petunidin, malvidin and delphinidin. The anthocyanidins were separated in a Forestal system (HOAc:water:HCl; 30:10:3) (Markham, Techniques of flavonoid identification, Academic Press, London, 1982) and the TLC was exposed to an autoradiographic film (Kodak) for 16 hours at −70° C.
(§2) Anthocyanidins in the reaction mixture were analysed by HPLC via gradient elution using gradient conditions of 50% B to 60% B over 10 minutes, then 60% B for 10 minutes and finally 60% B to 100% B over 5 minutes where solvent A consisted of TFA:H2O (5:995) and solvent B consisted of acetonitrile:TFA:H2O (500:5:495). An Asahi Pac ODP-50 cartridge column (250 mm×4.6 mm ID) was used for the reversed phase chromatographic separations. […].
(§3) The enzyme activities of the peptides encoded by Petunia and Torenia FMT cDNA clones in pCGP3086 and pCGP3090, respectively were further assessed using the substrates delphinidin 3-glucoside and delphinidin 3-rutinoside and delphinidin 3,5-diglucoside under assay conditions as previously described (Table 15, Example 9) except that the ^14C-labelled SAM was replaced with non radioactive SAM at 2 mg/mL and the substrates (delphinidin 3-glucoside and delphinidin 3-rutinoside and delphinidin 3,5-diglucoside) at 2 mg/mL.

[3] = system: Petunia FMT (E20); assay: HPLC assay of methyltransferase activity, E. coli extract containing pCGP3086; assay type: biochemical, Petunia hybrida; details: for product of flavonoid methyltransferase activity with the substrate: Petunia FMT (E20) in pCGP3086, to a lesser degree malvidin; for % of anthocyanidin detected cya / % of anthocyanidin detected del / % of anthocyanidin detected mal / % of anthocyanidin detected peo / % of anthocyanidin detected pet: pCGP3086 (PFMT), percentage of total anthocyanidins
Procedure: as §1, §2, §3

[4] = Reconstruction experiments: anthocyanins added to petal juice of Medeo roses; assay type: physicochemical, Rosa hybrida
Procedure: The rose cultivar Medeo generally produces cream-colored to pale apricot flowers (RHSCC 158C to 159A). […] The estimated vacuolar pH of Medeo petals is around 4.6. The petal juice of Medeo roses was extracted by grinding one petal with 50 μL of water using a mortar and pestle. The petal juice was collected and mixed with 10-20 μL of 1-2 mg/g delphinidin 3-glucoside, delphinidin 3,5-diglucoside and malvidin 3,5-diglucoside. The colors observed were described according to the Royal Horticultural Society Color Charts (RHSCC) (The Royal Horticultural Society, London) (Table 8).

[5] = system: rose petals; assay: Incubation of excised rose petal segments with precursors or end products; assay type: cell-based, Rosa hybrida; details: around 16 hours; for Color at cut edge after incubation in DHM: around 23° C.; for Color at cut edge upon production of delphinidin: incubation in dihydromyricetin 1-2 mg/mL
Procedure: To determine whether rose petals contained the enzymes necessary for conversion of dihydromyricetin to delphinidin, precursor-feeding experiments with dihydromyricetin were initiated.
Petal segments of a selection of commercial cultivars of roses (Toplesse, Lambada, Medeo, Pamela, Sonia, Oceana, Mystique) were placed in solutions of 1-2 mg/mL dihydromyrectin or water only and incubated for around 16 hours in a growth room at a temperature of around 23° C. Pink/purple colors were observed near the cut edges of the petals (Table 6).
Petal segments of roses were placed in solutions of 1-2 mg/mL malvidin 3,5-diglucoside, 1-2 mg/mL dihydromyrectin or water only and incubated for around 16 hours in a growth room at a temperature of around 23° C. The production of colors in the purple range were observed near the cut edges of the petals upon incubation with dihydromyrectin or malvidin 3,5-diglucoside (Table 7).

[6] = pCGP3086 crude homogenate + 14C-SAM (Table 16, positive control)
[7] = pCGP3086 crude homogenate + 14C-SAM, 30° C., 30 minutes (Table 11)
[8] = pCGP3090, substrate 2 mg/mL, SAM 2 mg/mL, duplicate a/b
[9] = pCGP3086, substrate 2 mg/mL, SAM 2 mg/mL, duplicate a/b
[10] = duplicate a/b, listed as D3, 5G
[11] = pCGP3090, substrate 2 mg/mL, SAM 2 mg/mL, duplicate a/b, listed as D3, 5G
[12] = rose cultivar Lambada (orange petal), 1-2 mg/mL
[13] = rose cultivar Toplesse (pink petal), 1-2 mg/mL

Compound: C[C@@H]1O[C@@H](OC[C@H]2O[C@@H](Oc3cc4c(O)cc(O)cc4[o+]c3-c3cc(O)c(O)c(O)c3)[C@H](O)[C@@H](O)[C@@H]2O)[C@H](O)[C@H](O)[C@H]1O [D3R, delphinidin 3-rutinoside]
Petunidin and malvidin, the methylated derivatives of delphinidin, in assay reactions ([1]; crude homogenates from pCGP3086 cells, 14C-SAM): detected
Malvidin (product on TLC) [1, 6]: yes
Petunidin (product on TLC) [1, 6]: yes
Malvidin (product on TLC) [1, 7]: yes
Petunidin (product on TLC) [1, 7]: yes
product of flavonoid methyltransferase activity with the substrate [2]: predominantly malvidin
Predominant FMT Activity ([2]; pCGP3090): 3′5′FMT
% of anthocyanidin detected cya ([2]; duplicate a/b): 0.0%
% of anthocyanidin detected del ([2]; duplicate a/b): 13.2% and 14.6%
% of anthocyanidin detected mal ([2]; duplicate a/b): 80.9% and 79.1%
% of anthocyanidin detected peo ([2]; duplicate a/b): 1.9%
% of anthocyanidin detected pet ([2]; duplicate a/b): 4.0% and 4.3%
Anthocyanidins (mg/g) Cya [2, 8]: 0 mg/g
Anthocyanidins (mg/g) Del [2, 8]: 2.5 mg/g and 2.8 mg/g
Anthocyanidins (mg/g) Mal [2, 8]: 15.6 mg/g and 15.1 mg/g
Anthocyanidins (mg/g) Peo [2, 8]: 0.4 mg/g
Anthocyanidins (mg/g) Pet [2, 8]: 0.8 mg/g
product of flavonoid methyltransferase activity with the substrate [3]: predominantly petunidin
Predominant FMT Activity ([3]; pCGP3086): 3′FMT
% of anthocyanidin detected cya ([3]; duplicate a/b): 2.5%
% of anthocyanidin detected del ([3]; duplicate a/b): 21.2% and 21.7%
% of anthocyanidin detected mal ([3]; duplicate a/b): 16.6% and 17.4%
% of anthocyanidin detected peo ([3]; duplicate a/b): 1.2% and 1.1%
% of anthocyanidin detected pet ([3]; duplicate a/b): 58.5% and 57.4%
Anthocyanidins (mg/g) Cya [3, 9]: 0.4 mg/g and 0.5 mg/g
Anthocyanidins (mg/g) Del [3, 9]: 3.7 mg/g and 4.5 mg/g
Anthocyanidins (mg/g) Mal [3, 9]: 2.9 mg/g and 3.6 mg/g
Anthocyanidins (mg/g) Peo [3, 9]: 0.2 mg/g
Anthocyanidins (mg/g) Pet [3, 9]: 10.2 mg/g and 11.9 mg/g

COLOR ([4]; pH 4.6): violet
RHSCC# ([4]; pH 4.6): 88A
COLOR ([4]; pH 4.9): violet
RHSCC# ([4]; pH 4.9): 88A
Compound: OC[C@H]1O[C@@H](Oc2cc3c(O[C@@H]4O[C@H](CO)[C@@H](O)[C@H](O)[C@H]4O)cc(O)cc3[o+]c2-c2cc(O)c(O)c(O)c2)[C@H](O)[C@@H](O)[C@@H]1O [D35G, delphinidin 3,5-diglucoside]
product of flavonoid methyltransferase activity with the substrate [2]: predominantly malvidin
Predominant FMT Activity ([2]; pCGP3090): 3′5′FMT
% of anthocyanidin detected cya ([2]; duplicate a/b): 0.0%
% of anthocyanidin detected peo ([2]; duplicate a/b): 0.0%
% of anthocyanidin detected del [2, 10]: 22.9% and 28.9%
% of anthocyanidin detected mal [2, 10]: 70.0% and 66.9%
% of anthocyanidin detected pet [2, 10]: 7.1% and 4.3%
Anthocyanidins (mg/g) Cya [2, 8]: 0 mg/g
Anthocyanidins (mg/g) Peo [2, 8]: 0 mg/g
Anthocyanidins (mg/g) Mal [2, 11]: 7.3 mg/g and 12.4 mg/g
Anthocyanidins (mg/g) Pet [2, 11]: 0.7 mg/g and 0.8 mg/g
product of flavonoid methyltransferase activity with the substrate [3]: predominantly petunidin
Predominant FMT Activity ([3]; pCGP3086): 3′FMT
% of anthocyanidin detected peo ([3]; duplicate a/b): 0.0%
% of anthocyanidin detected cya [3, 10]: 0.0% and 2.2%
% of anthocyanidin detected del [3, 10]: 45.6% and 55.9%
% of anthocyanidin detected mal [3, 10]: 11.0% and 6.0%
% of anthocyanidin detected pet [3, 10]: 43.4% and 35.9%
Anthocyanidins (mg/g) Peo [3, 9]: 0 mg/g
Anthocyanidins (mg/g) Mal ([3]; pCGP3086, substrate 2 mg/mL, SAM 2 mg/mL, duplicate a/b, listed as D3, 5G): 0.7 mg/g and 1.1 mg/g

Compound: O=C1c2c(O)cc(O)cc2O[C@H](c2cc(O)c(O)c(O)c2)[C@H]1O [DHM, dihydromyricetin]
TLC analysis of the anthocyanidins in the pink/purple segments ([5]; petal segments of commercial rose cultivars, 1-2 mg/mL): production of delphinidin
Color at cut edge after incubation in DHM [5, 12]: pink/purple
Color at cut edge upon production of delphinidin ([5]; rose cultivar Lambada (orange petal)): pink/purple
Color at cut edge after incubation in DHM ([5]; rose cultivar Medeo (pale apricot petal), 1-2 mg/mL): pink/purple
Color at cut edge after incubation in DHM ([5]; rose cultivar Mystique (apricot petal), 1-2 mg/mL): pink/purple
Color at cut edge after incubation in DHM ([5]; rose cultivar Oceana (cream petal), 1-2 mg/mL): pink/purple
Color at cut edge after incubation in DHM ([5]; rose cultivar Pamela (white/pale pink petal), 1-2 mg/mL): pink/purple
Color at cut edge after incubation in DHM ([5]; rose cultivar Sonia (apricot/pink petal), 1-2 mg/mL): pink/purple
Color at cut edge after incubation in DHM [5, 13]: pink/purple
Color at cut edge upon production of delphinidin ([5]; rose cultivar Toplesse (pink petal)): pink/purple

Compound: COc1cc(-c2[o+]c3cc(O)cc(O[C@@H]4O[C@H](CO)[C@@H](O)[C@H](O)[C@H]4O)c3cc2O[C@@H]2O[C@H](CO)[C@@H](O)[C@H](O)[C@H]2O)cc(OC)c1O [M35G, malvidin 3,5-diglucoside]
COLOR ([4]; pH 4.6): violet-blue
COLOR ([4]; pH 4.9): violet-blue
RHSCC# ([4]; pH 4.9): 90A
Color at cut edge after incubation with malvidin [5, 12]: violet/purple
Color at cut edge after incubation with malvidin [5, 13]: violet/purple

— patent US7807877B2, “Genetic sequences having methyltransferase activity and uses therefor” (International Flower Developments Pty. Ltd., priority 2002, dated 2010)
